For assay [1], the target named is T1, Transient receptor potential cation channel subfamily V member 1 (Rattus norvegicus, UniProt O35433). Briefly: In vitro agonistic activity on VR1 receptor in [Ca2+] influx assay in rat dorsal root ganglion (NE: not effective at 30 uM). In kind it is functional, tissue-based.
In assay [2] the target is T1, Transient receptor potential cation channel subfamily V member 1. Kind of assay: In vitro antagonistic activity on VR1 receptor in [Ca2+] influx assay in rat dorsal root ganglion. In kind it is functional, tissue-based.

T1 sequence (O35433 whole entry): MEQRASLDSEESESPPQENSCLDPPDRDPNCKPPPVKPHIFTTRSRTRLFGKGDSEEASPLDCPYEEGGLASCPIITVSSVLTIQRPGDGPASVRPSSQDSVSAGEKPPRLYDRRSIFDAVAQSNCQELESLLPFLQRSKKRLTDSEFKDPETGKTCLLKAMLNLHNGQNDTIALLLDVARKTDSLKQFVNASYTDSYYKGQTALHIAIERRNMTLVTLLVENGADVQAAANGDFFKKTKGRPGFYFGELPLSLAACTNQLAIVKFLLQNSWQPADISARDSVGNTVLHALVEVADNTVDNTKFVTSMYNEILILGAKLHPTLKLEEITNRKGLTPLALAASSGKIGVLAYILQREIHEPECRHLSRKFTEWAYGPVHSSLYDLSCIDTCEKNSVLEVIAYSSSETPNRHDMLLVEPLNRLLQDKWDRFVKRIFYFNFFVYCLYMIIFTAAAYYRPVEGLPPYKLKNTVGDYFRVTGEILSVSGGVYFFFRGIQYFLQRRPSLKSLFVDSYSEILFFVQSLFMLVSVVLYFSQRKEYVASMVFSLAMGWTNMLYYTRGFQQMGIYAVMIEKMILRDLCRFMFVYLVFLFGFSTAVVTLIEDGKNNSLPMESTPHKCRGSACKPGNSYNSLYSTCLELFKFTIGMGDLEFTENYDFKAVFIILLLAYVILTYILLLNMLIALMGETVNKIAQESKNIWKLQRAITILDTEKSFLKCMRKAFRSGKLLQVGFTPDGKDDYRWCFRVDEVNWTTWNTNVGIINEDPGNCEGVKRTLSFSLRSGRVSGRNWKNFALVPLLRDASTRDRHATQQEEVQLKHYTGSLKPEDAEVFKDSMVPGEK

By IC50 is commonly meant the midpoint of a concentration-inhibition curve. Low values mean inhibition by little substance, high ones a need for much substance. For `Cc1cccnc1-c1ccc(C(=O)Nc2ccc(C(C)(C)C)cc2)cc1`, the 50% inhibitory concentration (IC50) entry in assay [1] is “Not Active”; in assay [2] it was 31 nM.

In the case of `CC(C)(C)c1ccc(NC(=O)c2ccc(-c3ncccc3C(F)(F)F)cc2)cc1`, the IC50 result was “Not Active” in assay [1] and 140 nM in assay [2].

As for `CC(C)(C)c1ccc(NC(=O)c2ccc(-c3ncccn3)cc2)cc1`, the IC50 entry in assay [1] was “Not Active”; in assay [2], 60 nM.

With `Cc1ccc(NC(=O)c2ccc(-c3ccccn3)cc2)cc1C`, the IC50 result in assay [1] is “Not Active”; in assay [2] it was 2000 nM.

For the compound `CC(C)(C)c1ccc(NC(=O)c2ccc(-c3cnccn3)cc2)cc1`, the values for the concentration for half-maximal inhibition (IC50) entry in assay [1] and in assay [2] were “Not Active” and 1000 nM, respectively.

Regarding `CN(C(=O)c1ccc(-c2ccccn2)cc1)c1ccc(C(C)(C)C)cc1`, the concentration for half-maximal inhibition (IC50) entry is “Not Active” in assay [1] and more than 10000 nM in assay [2].

In the case of `CC(C)(C)c1ccc(NC(=O)c2ccc(-c3ncccc3[N+](=O)[O-])cc2)cc1`, the half-inhibitory concentration (IC50) entry was “Not Active” in assay [1] and 60 nM in assay [2].

As to `O=C(Nc1ccc(C(F)(F)F)cc1)c1ccc(-c2ccccn2)cc1`, the concentration for half-maximal inhibition (IC50) entry in assay [1] was “Not Active”; in assay [2], 7900 nM.

As to `CC(C)(C)c1ccc(NC(=O)c2ccc(-c3ccccn3)cc2)cc1`, the values for the IC50 entry in assay [1] and in assay [2] were “Not Active” and 31 nM, respectively.

Turning to `CC(C)(C)c1ccc(NC(=O)N2CCN(c3ccccn3)CC2)cc1`, the IC50 result in assay [1] is “Not Active”; in assay [2], 150 nM.

For `O=C(Nc1ccccc1)c1ccc(-c2ccccn2)cc1`, the IC50 entry was “Not Active” in assay [1] and more than 10000 nM in assay [2].

Turning to `CC(C)(C)c1ccc(NC(=O)c2ccc(-c3ncccc3Cl)cc2)cc1`, the results for the IC50 entry in assay [1] and in assay [2] were “Not Active” and 55 nM, respectively.

On to `Cc1ccc(NC(=O)c2ccc(-c3ccccn3)cc2)cc1`, for which the IC50 result in assay [1] was “Not Active”; in assay [2], 2300 nM.

In the case of `CC(C)c1ccc(NC(=O)c2ccc(-c3ccccn3)cc2)cc1`, the results for the IC50 entry in assay [1] and in assay [2] were “Not Active” and 38 nM, respectively.

Regarding `CC(C)(C)c1ccc(NC(=O)c2ccc(-c3ccccc3)cc2)cc1`, the IC50 entry in assay [1] is “Not Active”; in assay [2] it was 3600 nM.

Consider `CC(C)(C)c1ccc(NC(=O)c2ccc(-c3ccncc3)cc2)cc1`, for which the IC50 entry in assay [1] is “Not Active”; in assay [2], 280 nM.

Turning to `CC(C)(C)c1ccc(NC(=O)c2ccc(-c3cccnc3)cc2)cc1`, the values for the 50% inhibitory concentration (IC50) entry in assay [1] and in assay [2] were “Not Active” and 1300 nM, respectively.

Turning to `CC(C)(C)c1ccc(NC(=O)c2ccc(-c3cncnc3)cc2)cc1`, the IC50 result in assay [1] is “Not Active”; in assay [2] it was more than 10000 nM.

The record behind these values is ChEMBL document CHEMBL1144279, “Biarylcarboxybenzamide derivatives as potent vanilloid receptor (VR1) antagonistic ligands” (Bioorg Med Chem Lett, 2005).
